Laboratory results: patent US20240376151A1, “STAPLED PEPTIDES AND METHODS THEREOF” (FOG PHARMACEUTICALS, INC., priority 2022, published 2024)

Key:
beta-catenin [1] = molecular target: T1, beta-catenin (Homo sapiens, UniProt P35222); test: SPR binding of Helicons to immobilized beta-catenin
T1 construct: made in house; host or cells: E. coli BL21 (DE3) pLysS
T1 sequence (P35222 134-665): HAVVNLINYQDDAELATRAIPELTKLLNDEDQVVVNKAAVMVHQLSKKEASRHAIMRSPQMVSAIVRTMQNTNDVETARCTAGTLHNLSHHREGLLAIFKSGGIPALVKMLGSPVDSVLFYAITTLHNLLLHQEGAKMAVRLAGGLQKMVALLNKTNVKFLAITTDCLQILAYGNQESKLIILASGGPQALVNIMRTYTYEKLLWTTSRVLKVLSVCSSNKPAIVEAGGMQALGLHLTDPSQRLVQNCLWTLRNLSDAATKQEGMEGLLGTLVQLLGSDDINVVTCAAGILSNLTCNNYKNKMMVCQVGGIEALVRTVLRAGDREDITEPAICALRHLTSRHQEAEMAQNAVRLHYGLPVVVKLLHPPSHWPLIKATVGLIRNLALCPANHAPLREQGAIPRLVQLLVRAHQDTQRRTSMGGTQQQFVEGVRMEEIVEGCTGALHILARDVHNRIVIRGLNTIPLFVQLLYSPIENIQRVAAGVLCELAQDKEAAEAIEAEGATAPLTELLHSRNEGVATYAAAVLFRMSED

beta-catenin [2] = molecular target: T2, beta-catenin (Homo sapiens, UniProt P35222); test: Competition FP, beta-catenin vs Axin-derived Helicon probe; type: binding
T2 construct: 10 nM full-length β-catenin (Uniprot ID P35222); 6×His-thrombin-T7-TEV (N); made in house; host or cells: E. coli BL21 (DE3) pLysS
T2 sequence (P35222 whole entry): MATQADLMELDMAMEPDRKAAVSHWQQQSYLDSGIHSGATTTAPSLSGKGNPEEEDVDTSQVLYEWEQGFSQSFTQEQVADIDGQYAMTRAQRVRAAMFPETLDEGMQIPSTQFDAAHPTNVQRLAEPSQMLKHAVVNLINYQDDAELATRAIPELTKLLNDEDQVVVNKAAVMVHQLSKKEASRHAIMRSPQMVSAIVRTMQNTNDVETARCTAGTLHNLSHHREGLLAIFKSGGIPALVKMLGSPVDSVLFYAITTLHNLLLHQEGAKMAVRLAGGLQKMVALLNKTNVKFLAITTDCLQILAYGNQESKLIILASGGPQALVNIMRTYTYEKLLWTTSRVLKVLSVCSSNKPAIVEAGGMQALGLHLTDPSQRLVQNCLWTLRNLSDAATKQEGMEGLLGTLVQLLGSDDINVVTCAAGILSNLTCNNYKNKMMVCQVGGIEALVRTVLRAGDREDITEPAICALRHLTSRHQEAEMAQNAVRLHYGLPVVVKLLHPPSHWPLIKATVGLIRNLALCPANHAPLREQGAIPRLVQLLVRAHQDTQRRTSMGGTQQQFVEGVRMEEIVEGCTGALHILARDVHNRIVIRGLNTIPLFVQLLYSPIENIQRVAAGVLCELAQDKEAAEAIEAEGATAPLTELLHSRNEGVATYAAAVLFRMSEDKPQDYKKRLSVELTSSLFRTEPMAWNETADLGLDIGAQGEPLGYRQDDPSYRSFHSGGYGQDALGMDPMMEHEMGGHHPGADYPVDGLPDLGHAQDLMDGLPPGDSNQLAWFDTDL

CC[C@H](C)[C@@H]1NC(=O)[C@H](C)NC(=O)[C@H](C)NC(=O)[C@H](Cc2c[nH]c3ccccc23)NC(=O)[C@H](CCC(=O)O)NC(=O)[C@@H](NC(=O)[C@H](CC(C)C)NC(=O)[C@H](CCC(=O)O)NC(=O)[C@H](CO)NC(=O)[C@H](C)NC(=O)[C@@H]2CCCN2C(=O)[C@H](CC(=O)O)NC(C)=O)CSCC(=O)Nc2ccc(cc2)NC(=O)CSC[C@@H](C(=O)N[C@@H](CC(=O)O)C(=O)N[C@@H](CC(C)C)C(=O)N[C@H](C(N)=O)C(C)C)NC(=O)[C@H](Cc2c[nH]cn2)NC1=O [FP01822]
Kd (beta-catenin [1]): 3 µM
IC50 (beta-catenin [2]): 3.7 µM
